Reference: PMC6151488, “Structure, Absolute Configuration, and Antiproliferative Activity of Abietane and Icetexane Diterpenoids from Salvia ballotiflora” (Molecules : A Journal of Synthetic Chemistry and Natural …, 2017)
Values joined by “and” are separate entries in the source; they are usually repeats but may differ in a detail not shown here. Equal values may be shown once. Read-outs that look alike come from different tables or passages of the source.

Assays:
[1] = system: K562 (human chronic myelogenous leukemia); assay: Sulforhodamine B (SRB) cytotoxicity assay, K562; assay type: cell-based; conditions: for IC50: SRB assay, 48 h exposure, mean ± SD, read-out: IC50 antiproliferative activity, K562; for inhibition at 50 µM / Antiproliferative activity (%), K562: primary screening at 50.0 μM, NC = No cytotoxic
Description: (§1) The natural products were screened in vitro against the following human cancer cell lines: human mammary adenocarcinoma (MCF-7), human chronic myelogenous leukemia (K562), human glioblastoma (U251), human lung adenocarcinoma (SKLU-1), human colon cancer (HCT-15), human prostate cancer (PC-3), healthy gingival human fibroblasts (FGH), and normal monkey kidney cell lines, which were supplied by the National Cancer Institute (NCI, USA) and American Type Culture Collection (ATTC). The human tumor cytotoxicity was determined using the protein-binding dye sulforhodamine B (SRB) in a microculture assay to measure cell growth, as described in the protocol established by the NCI [30]. The cell lines were cultured in RPMI-1640 medium supplemented with 10% fetal bovine serum, 2 mM L-glutamine, 10,000 units/mL penicillin G sodium, 10,000 μg/mL streptomycin sulfate, and 25 μg/mL amphotericin B (Gibco), and 1% non-essential amino acids (Gibco). They were maintained at 37 °C in a humidified atmosphere with 5% CO2. The viability of the cells used in the experiments exceeded 95%, as determined with trypan blue.
(§2) Cytotoxicity after treatment of the tumors cells and normal cells with the test compounds were determined using the protein-binding dye sulforhodamine B (SRB) in a microculture assay to measure cell growth. The cells were removed from the tissue culture flasks by treatment with trypsin, and diluted with fresh media. Of these cell suspensions, 100 μL containing 5000–10,000 cells per well were pipetted into 96-well microtiter plates (Costar) and the material was incubated at 37 °C for 24 h in a 5% CO2 atmosphere. Subsequently, 100 μL of a solution of the compound obtained by diluting the stocks were added to each well. The cultures were exposed to the compound for 48 h. After the incubation period, cells were fixed to the plastic substratum by the addition of 50 μL of cold 50% aqueous trichloroacetic acid. The plates were incubated at 4 °C for 1 h, washed with tap water, and air-dried. The trichloroacetic-acid-fixed cells were stained by the addition of 0.4% SRB. The free SRB solution was then removed by washing with 1% aqueous acetic-acid. The plates were air-dried, and the bound dye was dissolved by the addition of 10 mM unbuffered Tris base (100 μL). The plates were placed on a shaker for 10 min, and the absorption was determined at 515 nm using an ELISA plate reader (Bio-Tex Instruments).

[2] = system: six human cancer cell lines (U251, PC-3, K562, HCT-15, MCF-7, SKLU-1) and FGH; assay: SRB primary screening, whole panel (result in words); assay type: cell-based; conditions: primary screening at 50 μM; cancer cell lines other than K562 and MCF-7
Method: The same biological activity was also recently described for icetexane-derivatives isolated from Premna and Amentotaxus species. […] These facts prompted us to assay diterpenoids 3, 4, 6–8 and 10 for antiproliferative activity using six human cancer cell lines (U251, PC-3, K562, HCT-15, MCF-7, and SKLU-1), and a primary culture of healthy gingival human fibroblasts (FGH) at 1.0 or 50.0 μM (when cytotoxicity at 50.0 μM results were too high). […] Overall, the antiproliferative activity determined for 7 was lower than that observed for 6.
as §1
(§3) Cytotoxicity after treatment of the tumors cells and normal cells with the test compounds were determined using the protein-binding dye sulforhodamine B (SRB) in a microculture assay to measure cell growth. […] The plates were placed on a shaker for 10 min, and the absorption was determined at 515 nm using an ELISA plate reader (Bio-Tex Instruments).

[3] = system: U251 (human glioblastoma); assay: Sulforhodamine B (SRB) cytotoxicity assay, U251; assay type: cell-based; conditions: for inhibition at 50 µM: primary screening at 50.0 μM, NC = No cytotoxic
Description: as §1, with “CO2.” for “CO2. The viability of the cells used in the experiments exceeded 95%, as determined with trypan blue.”
as §2

[4] = Scavenging activity on free radical DPPH; conditions: at 100 μM; 30 min, 37 °C
Method: Free radical scavenging activity was measured using an adapted method of Mellors and Tappel. The test was carried out in 96-well microplates. A 50-μL aliquot of the solution of the test compound was mixed with 150 μL of an ethanol solution of DPPH (final concentration 100 μM). The mixture was incubated at 37 °C for 30 min, and the absorbance was then measured at 515 nm using a BioTek microplate reader SYNERGY HT. The percent inhibition was determined by comparison with a 100-μM DPPH ethanol blank solution.

[5] = system: SKLU-1 (human lung adenocarcinoma); assay: Sulforhodamine B (SRB) cytotoxicity assay, SKLU-1; assay type: cell-based; conditions: for inhibition at 50 µM: primary screening at 50.0 μM, NC = No cytotoxic; for IC50: SRB assay, 48 h exposure, mean ± SD, read-out: IC50 antiproliferative activity, SKLU-1
Description: as §1, §2

[6] = system: healthy gingival human fibroblasts (FGH); assay: Sulforhodamine B (SRB) cytotoxicity assay, FGH primary culture; assay type: cell-based; conditions: primary screening at 50.0 μM; mean n = 2; NC = No cytotoxic
Description: as §1, with “They were maintained at 37 °C in a humidified atmosphere with 5% CO2.” left out
as §3

[7] = system: MCF-7 (human mammary adenocarcinoma); assay: Sulforhodamine B (SRB) cytotoxicity assay, MCF-7; assay type: cell-based; conditions: for IC50 / inhibition at 50 µM: Homo sapiens, MCF7; for IC50: SRB assay, 48 h exposure, mean ± SD, read-out: IC50 antiproliferative activity, MCF-7; for inhibition at 50 µM / Antiproliferative activity (%), MCF-7: mean n = 2, NC = No cytotoxic; for inhibition at 50 µM: read-out: Antiproliferative activity (%), MCF-7
Description: as §1, §2

[8] = system: HCT-15 (human colon cancer); assay: Sulforhodamine B (SRB) cytotoxicity assay, HCT-15; assay type: cell-based; conditions: for inhibition at 50 µM: primary screening at 50.0 μM, mean n = 2, NC = No cytotoxic, read-out: Antiproliferative activity (%), HCT-15
Description: as §1, §2

[9] = system: PC-3 (human prostate cancer); assay: Sulforhodamine B (SRB) cytotoxicity assay, PC-3; assay type: cell-based; conditions: for inhibition at 50 µM: primary screening at 50.0 μM, mean n = 2, NC = No cytotoxic, read-out: Antiproliferative activity (%), PC-3
Description: as §1, §2

TPA-induced ear edema = TPA-induced ear edema test in mice; assay type: in vivo; conditions: mice CD-1, 1.0 μmol ear^-1 topical, 4 h after TPA, mean ± SEM; for Inhibition of Edema (%): NA = Non-active
Method: Male CD-1 mice weighing 25–30 g were maintained under standard laboratory conditions in the animal house (temperature 24 ± 2 °C) in a 12/12 h light/dark cycle, fed a laboratory diet and water ad libitum, following the Mexican official norm NOM-062-Z00-1999.
The TPA-induced ear edema assay in mice was performed as reported in reference. A solution of TPA (2.5 μg) in ethanol (10 μL) was applied topically to both faces (5 μL each ear) of the right ear of the mice, 10 min after solutions of the test substances in their respective solvents were applied (10 μL each face). The left ear received ethanol (10 μL) first, followed by 20 μL of the respective solvent. The mice were killed with CO2 four hours later. A 7-mm diameter plug was removed from each ear. The swelling was assessed as the difference in weight between the left and the right ear. Control animals received the correspondent solvent in each case. Edema inhibition (EI %) was calculated by the equation EI % = 100 − (B × 100/A), where A is the edema induced by TPA alone and B is the edema induced by TPA plus the sample. Indomethacin and celecoxib were used as reference compounds.

[10] = system: COS-7 normal monkey kidney; assay: Sulforhodamine B (SRB) cytotoxicity assay, COS-7 normal cell line; assay type: cell-based; conditions: Primates, mean ± SD
Description: as §1
as §2, with “The plates were incubated at 4 °C for 1 h, washed with tap water, and air-dried. The trichloroacetic-acid-fixed cells were stained by the addition of 0.4% SRB. The free SRB solution was then removed by washing with 1% aqueous acetic-acid. The plates were air-dried, and the bound dye was dissolved by the addition of 10 mM unbuffered Tris base (100 μL).” left out

HeLa cells = system: HeLa cells; design: method as in doi:10.1016/j.bjp.2017.01.007; conditions: similar activity when compared to cisplatin; cited from earlier work
[11] = Homo sapiens, K562, mean n = 2, read-out: Antiproliferative activity (%), K562
[12] = Homo sapiens, U-251, mean n = 2, read-out: Antiproliferative activity (%), U251
[13] = Homo sapiens, SK-LU-1, mean n = 2, read-out: Antiproliferative activity (%), SKLU-1
[14] = primary screening at 1.0 μM, mean n = 2

Compound | IC50 ([1]; Homo sapiens, K562) [µM] | inhibition at 50 µM [1, 11] [%] | Antiproliferative activity (%), K562 ([1]; mean n = 2) | inhibition at 50 µM [3, 12] [%] | DPPH inhibitory effect (%) [4] [%] | inhibition at 50 µM [5, 13] [%] | Antiproliferative activity (%), FGH [6] | IC50 [7] [µM] | inhibition at 50 µM ([7]; primary screening at 50.0 μM) [%] | Antiproliferative activity (%), MCF-7 ([7]; primary screening at 50.0 μM) | inhibition at 50 µM [8] [%] | inhibition at 50 µM [9] [%] | Edema (TPA-induced ear edema) [mg] | Inhibition of Edema (%) (TPA-induced ear edema) | melting point [°C] | other results
CC(C)C1=C(O)C(=O)C2=C(C=C[C@@H]3[C@]4(CCC[C@]3(C)C(=O)O4)C2)C1=O [Compound 8, icetexone] | 17 ± 1.4 | 83.1 | significant antiproliferative activity | 35.8 | 3.7 | 52.9 | lacked of toxicity | 28.7 ± 1.6 | 71.6 | significant antiproliferative activity | 29 | 39.6 | – | – | – | Activity against all other tested cancer cell lines (in words) [2]: moderately active
CC(C)C1=C(O)C(=O)C2=C(CC3OC(=O)C4(C)CCC=C(C2)C34)C1=O (stereo not shown) [Compound 7, 7,20-Dihydroanastomosine] | 31.2 ± 1.1 | 63.2 | moderate toxicity | 10.1 | 6.6 | 46.5 | non-toxic | 33.2 ± 1.2 | 62.6 | moderate toxicity | 26.8 | 17.8 | 15.50 ± 0.76 | non-active | 223 to 227 | –
CC(=O)OC1CC2C3(CCCC2(C)C(=O)O3)CC2=C1C(=O)C(C(C)C)=C(O)C2=O (stereo not drawn) [Compound 3, 7α-Acetoxy-6,7-dihydroicetexone] | – | – | – | – | 6.1 | – | – | – | – | – | – | – | 9.87 ± 0.44 | 37.4 ± 2.8% and 37.42 ± 2.77 % | 110 to 115 | inhibition at 1 µM ([1]; Homo sapiens, K562, primary screening at 1.0 μM, mean n = 2, read-out: Antiproliferative activity (%), K562): 48.6%; inhibition at 1 µM ([3]; Homo sapiens, U-251, primary screening at 1.0 μM, mean n = 2, read-out: Antiproliferative activity (%), U251): 65.4%; Antiproliferative activity (%), U251 [3, 14]: moderately active; SI (selectivity index), U251 ([3]; quotient of IC50 of COS-7 / IC50 of U251): 1.2; IC50 ([5]; Homo sapiens, SK-LU-1, 48 h): 0.46 ± 0.05 µM; inhibition at 1 µM ([5]; Homo sapiens, SK-LU-1, primary screening at 1.0 μM, mean n = 2, read-out: Antiproliferative activity (%), SKLU-1): 64.5%; IC50 [5]: 0.82 ± 0.06 µM; Antiproliferative activity (%), SKLU-1 [5, 14]: moderately active; SI (selectivity index), SKLU-1 ([5]; quotient of IC50 of COS-7 / IC50 of SKLU-1): 2.0; IC50 [10]: 1.62 ± 0.1 µM; Antiproliferative activity (%), MCF-7 ([7]; primary screening at 1.0 μM): non-toxic; inhibition at 1 µM ([8]; primary screening at 1.0 μM, mean n = 2, read-out: Antiproliferative activity (%), HCT-15): 33.4%; inhibition at 1 µM ([9]; primary screening at 1.0 μM, mean n = 2, read-out: Antiproliferative activity (%), PC-3): 34.2%
19-deoxyisoicetexone | – | – | – | – | – | – | – | – | – | – | – | – | – | – | – | IC50 (HeLa cells): 9.36 µM
